Source: the supplement of paper PMC13380429

Tests used:
Conditions in all cases: 72 h
Vero E6 [1] = assay: drug sensitivity score (DSS) for viability; higher = more toxic; extreme values may be limits of the assay
Calu-3 [2] = assay: as above
HepG2 [3] = assay: as above
Caco-2 [4] = assay: as above
Vero E6 [5] = assay: relative viability EC50 (midpoint between 100% and the lowest measured viability); higher = less toxic
HepG2 [6] = assay: as above
Caco-2 [7] = assay: as above
Vero E6 [8] = assay: cell viability relative to DMSO; higher = less toxic
Calu-3 [9] = assay: as above
HepG2 [10] = assay: as above
Caco-2 [11] = assay: as above
U2OS [12] = assay: drug sensitivity score (DSS) for viability; higher = more toxic; extreme values may be limits of the assay
U2OS [13] = assay: relative viability EC50 (midpoint between 100% and the lowest measured viability); higher = less toxic
Calu-3 [14] = assay: as above
U2OS [15] = assay: cell viability relative to DMSO; higher = less toxic

Row | Structure (SMILES) | drug sensitivity score (Vero E6 [1]) | drug sensitivity score (Calu-3 [2]) | drug sensitivity score (HepG2 [3]) | drug sensitivity score (Caco-2 [4]) | relative viability EC50 (Vero E6 [5]) [µM] | relative viability EC50 (HepG2 [6]) [µM] | relative viability EC50 (Caco-2 [7]) [µM] | cell viability (Vero E6 [8]; 1 nM) [%] | cell viability (Vero E6 [8]; 10 nM) [%] | cell viability (Vero E6 [8]; 100 nM) [%] | cell viability (Vero E6 [8]; 1000 nM) [%] | cell viability (Vero E6 [8]; 10000 nM) [%] | cell viability (Calu-3 [9]; 1 nM) [%] | cell viability (Calu-3 [9]; 10 nM) [%] | cell viability (Calu-3 [9]; 100 nM) [%] | cell viability (Calu-3 [9]; 1000 nM) [%] | cell viability (Calu-3 [9]; 10000 nM) [%] | cell viability (HepG2 [10]; 1 nM) [%] | cell viability (HepG2 [10]; 10 nM) [%] | cell viability (HepG2 [10]; 100 nM) [%] | cell viability (HepG2 [10]; 1000 nM) [%] | cell viability (HepG2 [10]; 10000 nM) [%] | cell viability (Caco-2 [11]; 1 nM) [%] | cell viability (Caco-2 [11]; 10 nM) [%] | cell viability (Caco-2 [11]; 100 nM) [%] | cell viability (Caco-2 [11]; 1000 nM) [%] | cell viability (Caco-2 [11]; 10000 nM) [%] | drug sensitivity score (U2OS [12]) | relative viability EC50 (U2OS [13]) [µM] | relative viability EC50 (Calu-3 [14]) [µM] | cell viability (U2OS [15]; 1 nM) [%] | cell viability (U2OS [15]; 10 nM) [%] | cell viability (U2OS [15]; 100 nM) [%] | cell viability (U2OS [15]; 1000 nM) [%] | cell viability (U2OS [15]; 10000 nM) [%]
1 | CCOC(=O)N1c2ccc(C(F)(F)F)cc2[C@@H](N(Cc2cc(C(F)(F)F)cc(C(F)(F)F)c2)C(=O)OC)C[C@H]1CC | 0.4 | 2.8 | 1.5 | 0.1 | > 10 | > 10 | > 10 | 98.3 | 99.1 | 96.2 | 98.4 | 85.2 | 96.4 | 98.9 | 98.4 | 86 | 69 | 99.3 | 106 | 94.3 | 93.6 | 75.5 | 108 | 108 | 100 | 101 | 87.2 |  |  |  |  |  |  |  | 
2 | CNC(=O)c1c(F)cccc1Nc1nc(Nc2cc3c(cc2OC)CCN3C(=O)CN(C)C)nc2[nH]ccc12 | 0 | 0 | 11.5 | 4.1 | > 10 |  |  | 101 | 97 | 94.1 | 93.4 | 101 | 99.4 | 104 | 103 | 95.1 | 91.3 | 100 | 101 | 77.3 | 53 | 56.5 | 103 | 93.4 | 92.3 | 85.7 | 52.8 | 2 | > 10 | > 10 | 97.7 | 98.9 | 100 | 87.9 | 78.5
3 | COc1ccc(-n2[nH]c3c4c(ncc3c2=O)CCCCC4)cc1 | 0 | 0 |  | 0 | > 10 |  | > 10 | 102 | 105 | 100 | 98.2 | 99.6 | 110 | 98.7 | 99.8 | 97.2 | 112 |  |  |  |  |  | 99.9 | 107 | 95.7 | 107 | 94.2 | 0 | > 10 | > 10 | 96.4 | 100 | 94.2 | 103 | 95.9
4 | COc1cccc(-c2cc(=O)c3ccccc3o2)c1N | 0 | 0.2 | 2.9 | 0 | > 10 |  | > 10 | 109 | 108 | 105 | 104 | 92 | 107 | 103 | 103 | 106 | 83.7 | 99.7 | 87.8 | 94.1 | 91.8 | 64.2 | 98.5 | 108 | 92.7 | 95.9 | 91.4 | 0 | > 10 | > 10 | 99.5 | 97.7 | 98.7 | 101 | 92
5 | COc1ccccc1N1CCN(CCN(C(=O)C2CCCCC2)c2ccccn2)CC1 | 0 | 0 |  | 0 | > 10 |  | > 10 | 104 | 102 | 104 | 97.2 | 99.1 | 93.6 | 86.7 | 99 | 92.2 | 84.3 |  |  |  |  |  | 99.1 | 101 | 93.5 | 102 | 94 | 0 | > 10 | > 10 | 95.6 | 99.6 | 102 | 100 | 95.5
6 | Cc1cc(C)c(N(Cc2ccccc2)S(=O)(=O)c2ccc(OCCNC(=O)c3cc4ccccc4o3)cc2)c(C(=O)NO)c1 | 2.5 | 1.1 | 4.3 | 5 | 3.55 | 2.43 | 1.77 | 105 | 107 | 105 | 104 | 47 | 95.2 | 103 | 96.9 | 99.4 | 73.4 | 93.4 | 98.9 | 91 | 94.5 | 37.8 | 94.1 | 101 | 105 | 88.8 | 42 | 1.9 |  |  | 104 | 96.3 | 100 | 98.5 | 63.9
7 | Cc1cc(CN2CCN(c3c(Br)cnc4nc(-c5ccc(N6CCN(C)CC6)cc5)[nH]c34)CC2)no1 | 1.5 | 0 | 6 | 0.6 | > 10 |  | > 10 | 96 | 96.6 | 94.1 | 83.6 | 84.2 | 97.8 | 103 | 94.2 | 114 | 105 | 101 | 98 | 106 | 65.6 | 59.9 | 101 | 99.3 | 99.7 | 96.8 | 84.7 | 0.8 |  | > 10 | 98.7 | 106 | 98.1 | 102 | 74.8
